Experimental data: patent publication US5521156A, “Cyclic neurokinin A antagonists” (priority 1994, dated 1996)
Where a SMILES comes first, the peptide text is derived from it. [ ]: non-standard residue; d: D form.

Experiments:
mice = conditions: mouse, in vivo
Description: The analgesic potential of the compounds of this invention was measured using a modification of the method of Whittle (Br. J. Pharmacol. 22:2246, 1964). Groups of 5-10 male mice received an intrathecal injection of cyclo[Tyr-trp-Leu-Arg-Trp-Gly] SEQ. ID 6 (0.013-4μg) or ethanol/saline vehicle in a volume of 5 μl. After 5 minutes, mice received an intraperitoneal injection of 0.4 ml acetic acid (0.25% v/v). […] To calculate an ED50 (dose producing analgesia in 50% of the mice), four or more doses of compound were tested and the results subjected to quantal analysis with an appropriate computer program.

[1] = target: T1, bovine stomach NK-2 receptor (Bos taurus, UniProt P05363); experiment: Antagonism of NK-2 receptor mediated phosphatidylinositol turnover in SKLKB82#3 cells; assay type: cell-based; conditions: Schild regression vs NKA, 95% confidence limits 8.22 to 8.69, read-out: pA2 (converted)
T1 construct: expressed in transfected cells; host or cells: SKLKB82#3 (mouse fibroblast cell line)
T1 sequence (P05363 1-384): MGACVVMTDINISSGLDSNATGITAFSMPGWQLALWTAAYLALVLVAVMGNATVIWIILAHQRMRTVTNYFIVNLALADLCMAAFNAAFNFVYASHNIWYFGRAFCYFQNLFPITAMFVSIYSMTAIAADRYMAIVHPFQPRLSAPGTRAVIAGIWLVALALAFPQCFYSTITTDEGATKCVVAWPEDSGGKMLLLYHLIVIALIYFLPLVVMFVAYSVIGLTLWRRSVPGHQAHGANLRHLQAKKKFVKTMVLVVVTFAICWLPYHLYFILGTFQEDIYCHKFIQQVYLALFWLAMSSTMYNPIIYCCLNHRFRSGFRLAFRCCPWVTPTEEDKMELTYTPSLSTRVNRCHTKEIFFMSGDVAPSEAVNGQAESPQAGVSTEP
Description: Cultured SKLKB82#3 (bovine stomach NK-2 receptor transfected into mouse fibroblast cell line) cells were seeded onto 24-well plates at 125,000 cells/well, two-three days prior to assay. Cells were loaded with 0.5 ml of 0.2 μM myo[2-^3 H(N)] inositol (American Radiolabeled Chemicals Inc., specific activity, 20 Ci/mmol) 20-24 hrs prior to assay. Cultured cells were maintained at 37° C. in a 5% CO2 environment. On the day of the assay, media was aspirated and the cells incubated in D-MEM/F-12 media containing 40 μg/ml bacitracin, 4 μg/ml each of leupeptin and chymostatin, 0.1% bovine serum albumin and 1 μM thiorphan and 10 mM LiCl. After 15 min., cyclo[Tyr-trp-Leu-Arg-Trp-Gly] SEQ. ID 6 (concentration range 0.3 nM -10 μM) was added to the cells in a volume of 0.1 ml. […] The third elution was collected and counted in 9 ml scintillation fluid. A 50 μl aliquot of the organic (bottom) phase was removed, dried in a scintillation vial and counted in 7 ml scintillation fluid.
The ratio of DPM in the aqueous phase aliquot (total inositol phosphates) to the DPM in the 50 μl organic phase aliquot (total [^3 H]-inositol incorporated) was calculated for each sample. Data are expressed as a percent of agonist-induced accumulation of [3H]-inositol phosphates over basal leTels. […]

Question: `CC(C)C[C@@H]1NC(=O)[C@@H](Cc2c[nH]c3ccccc23)NC(=O)[C@H](Cc2ccc(O)cc2)NC(=O)CNC(=O)[C@H](Cc2c[nH]c3ccccc23)NC(=O)[C@H](CCCNC(=N)N)NC1=O` [cyclo[Tyr--trp--Leu--Arg--Trp--Gly], cyclo[Tyr-trp-Leu-Arg-Trp-Gly]] (cyclo(GY[dW]LRW)) was tested. Which “ED50 (dose producing analgesia in 50% of the mice)” value (mice) did it give?
Answer: Its value is 0.18 µg.

Question: And the Kb [1]?
Answer: The Kb was 3.55 nM.
